This passage reports IC50 results from patent publication US8710089B2, “Triazole derivatives as ghrelin analogue ligands of growth hormone secretagogue receptors” (Zentaris GmbH, priority 2005, dated 2014).

What is called IC50 is the concentration needed to halve the response being measured. A low value points to higher potency.

Structures are written as SMILES.

T1 sequence (Q92847 whole entry): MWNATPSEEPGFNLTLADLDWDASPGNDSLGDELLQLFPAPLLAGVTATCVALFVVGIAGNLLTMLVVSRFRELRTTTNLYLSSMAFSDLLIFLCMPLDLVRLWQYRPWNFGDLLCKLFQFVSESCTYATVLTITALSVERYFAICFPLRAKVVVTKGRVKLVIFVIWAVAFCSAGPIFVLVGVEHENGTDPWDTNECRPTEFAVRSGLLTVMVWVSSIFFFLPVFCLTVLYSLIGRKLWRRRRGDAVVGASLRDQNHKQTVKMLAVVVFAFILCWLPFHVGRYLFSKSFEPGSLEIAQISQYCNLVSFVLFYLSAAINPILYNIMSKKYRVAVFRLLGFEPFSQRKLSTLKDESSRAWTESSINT

This assay has as its target T1, human GHS-R 1a (Homo sapiens, UniProt Q92847).
T1 construct: expressed in transfected cells; host or cells: LLC PK-1 porcine renal epithelial cells (ECACC No. 86121112), isolated plasma membranes
Description: GHS-R 1a receptor-ligand binding assay (membrane preparations from transfected LLC PK-1 cells). The settings on record: displacement of 125I-His9-ghrelin (60 pM); membranes of LLC PK-1 cells transfected with human GHS-R 1a; mean of at least two independent experiments in triplicates. The method in brief:
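Membranes from LLC PK-1 cells expressing human GHS-R 1a incubated 60 min at 25 °C in 50 mM Tris pH 7.3, 5 mM MgCl2, 2.5 mM EDTA, bacitracin with 60 pM 125I-ghrelin and competitor; nonspecific binding with 10^-6 M ghrelin; filtration read-out.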
A general note: In a radioligand displacement assay an active substance lowers the binding of a labelled ligand.
In turn, `COc1ccc(Cn2c(CCc3ccccc3)nnc2[C@@H](Cc2c[nH]c3ccccc23)NC(=O)Cc2ccccn2)cc1` [compound 51, (R)—N-(1-(4-(4-methoxybenzyl)-5-phenethyl-4H-1,2,4-triazol-3-yl)-2-(1H-indol-3-yl)ethyl)-2-(pyridin-2-yl)acetamide] displayed a half-inhibitory concentration (IC50) of 0.003 µM. The compound `COc1ccc(Cn2c(CCc3c[nH]c4ccccc34)nnc2[C@@H](Cc2c[nH]c3ccccc23)NC(=O)Cc2ccccn2)cc1` [compound 91, (R)—N-(1-(5-(2-(1H-indol-3-yl)ethyl)-4-(4-methoxybenzyl)-4H-1,2,4-triazol-3-yl)-2-(1H-indol-3-yl)ethyl)-2-(pyridin-2-yl)acetamide] gave a half-maximal inhibitory concentration (IC50) of 0.011 µM.

On to `COc1ccc(Cn2c(CCc3ccccc3)nnc2[C@@H](Cc2c[nH]c3ccccc23)NC(=O)[C@H](C)N)cc1` [compound 57, (S)—N—((R)-1-(4-(4-methoxybenzyl)-5-phenethyl-4H-1,2,4-triazol-3-yl)-2-(1H-indol-3-yl)ethyl)-2-aminopropanamide], for which the IC50 amounted to 0.14 µM. The compound `CCCCCCn1c(CCc2c[nH]c3ccccc23)nnc1[C@@H](Cc1c[nH]c2ccccc12)NC(=O)C(C)(C)N` [compound 15, (R)—N-(1-(5-(2-(1H-indol-3-yl)ethyl)-4-hexyl-4H-1,2,4-triazol-3-yl)-2-(1H-indol-3-yl)ethyl)-2-amino-2-methylpropanamide] came in with a concentration for half-maximal inhibition (IC50) of 0.12 µM.

`COc1ccc(Cn2c(CCc3c[nH]c4ccccc34)nnc2[C@@H](Cc2c[nH]c3ccccc23)NC(=O)[C@@H]2CCCN2)c(OC)c1` [compound 70, (S)—N—((R)-1-(5-(2-(1H-indol-3-yl)ethyl)-4-(2,4-dimethoxybenzyl)-4H-1,2,4-triazol-3-yl)-2-(1H-indol-3-yl)ethyl)pyrrolidine-2-carboxamide] displayed a half-maximal inhibitory concentration (IC50) of 0.006 µM. The figure for `COc1ccc(Cn2c(CCc3ccccc3)nnc2[C@@H](Cc2c[nH]c3ccccc23)NC(=O)C2CNCCN2)cc1` (stereo partly drawn) [compound 78] is 0.054 µM.

As to `COc1ccc(Cn2c(CCc3c[nH]c4ccccc34)nnc2[C@@H](Cc2c[nH]c3ccccc23)NC(=O)C2CCCNC2)c(OC)c1` (stereo partly drawn) [compound 32, (R)—N-(1-(5-(2-(1H-indol-3-yl)ethyl)-4-(2,4-dimethoxybenzyl)-4H-1,2,4-triazol-3-yl)-2-(1H-indol-3-yl)ethyl)piperidine-3-carboxamide], the concentration for half-maximal inhibition (IC50) was 0.0103 µM. Against the preceding compound, the IC50 is about 5.2-fold lower. For `COc1ccc(Cn2c(CCc3ccccc3)nnc2[C@@H](Cc2c[nH]c3ccccc23)NC(=O)[C@H]2CCCCN2)c(OC)c1` [compound 63, (R)—N—((R)-1-(4-(2,4-dimethoxybenzyl)-5-phenethyl-4H-1,2,4-triazol-3-yl)-2-(1H-indol-3-yl)ethyl)piperidine-2-carboxamide], the IC50 stood at 0.21 µM. Compared with the last compound, the IC50 is about 20-fold higher. With `CCc1ccc(-n2c(CCc3c[nH]c4ccccc34)nnc2[C@@H](Cc2c[nH]c3ccccc23)NC(=O)c2ccccn2)cc1` [compound 147, N—((R)-1-(5-(2-(1H-indol-3-yl)ethyl)-4-(4-ethylphenyl)-4H-1,2,4-triazol-3-yl)-2-(1H-indol-3-yl)ethyl)picolinamide] the figure was 0.049 µM; with `COc1ccc(Cn2c(CCc3ccccc3)nnc2[C@@H](Cc2c[nH]c3ccccc23)NC(=O)CCc2cccnc2)cc1` [compound 59, (R)—N-(1-(4-(4-methoxybenzyl)-5-phenethyl-4H-1,2,4-triazol-3-yl)-2-(1H-indol-3-yl)ethyl)-3-(pyridin-3-yl)propanamide], 0.173 µM; with `CC(C)(C)Sc1nnc([C@@H](COCc2ccccc2)NC(=O)C(C)(C)N)n1Cc1ccccc1` [Example 8 from WO 00/54729 A2, (S)—N-(1-(4-benzyl-5-(tert-butylthio)-1,2,4-triazol-3-yl)-2-(benzyloxy)ethyl)-2-amino-2-methylpropanamide, reference compound], approximately 20 µM.

The compound `COc1ccc(Cn2c(CCc3ccccc3)nnc2[C@@H](Cc2c[nH]c3ccccc23)NC(=O)c2cnccn2)cc1` [compound 76, (R)—N-(1-(4-(4-methoxybenzyl)-5-phenethyl-4H-1,2,4-triazol-3-yl)-2-(1H-indol-3-yl)ethyl)pyrazine-2-carboxamide] came in with an IC50 of 0.014 µM.

The compound `COc1ccc(Cn2c(CCc3c[nH]c4ccccc34)nnc2[C@@H](Cc2c[nH]c3ccccc23)NS(=O)(=O)c2ccc(C)cc2)c(OC)c1` [compound 187, (R)-1-(5-(2-(1H-indol-3-yl)ethyl)-4-(2,4-dimethoxybenzyl)-4H-1,2,4-triazol-3-yl)-2-(1H-indol-3-yl)-N-tosylethanamine] showed a 50% inhibitory concentration (IC50) of 0.066 µM.

In the case of `CCc1ccc(Cn2c(CCc3ccccc3)nnc2[C@@H](Cc2c[nH]c3ccccc23)NC(=O)C2CNCCN2)cc1` (mixture of isomers) [compound 84], the 50% inhibitory concentration (IC50) is 0.247 µM. Regarding `CC(C)(N)C(=O)N[C@H](Cc1c[nH]c2ccccc12)c1nnc(CCc2ccccc2)n1Cc1ccccc1` [compound 173, N—((R)-1-(4-benzyl-5-phenethyl-4H-1,2,4-triazol-3-yl)-2-(1H-indol-3-yl)ethyl)-2-amino-2-methylpropanamide], the IC50 came out at 0.114 µM. In turn, `COc1ccc(Cn2c(CCc3ccccc3)nnc2[C@@H](Cc2c[nH]c3ccccc23)NC(=O)CN)c(OC)c1` [compound 75, (R)—N-(1-(4-(2,4-dimethoxybenzyl)-5-phenethyl-4H-1,2,4-triazol-3-yl)-2-(1H-indol-3-yl)ethyl)-2-aminoacetamide] showed an IC50 of 0.14 µM. The figure for `COc1ccc(Cn2c(CCc3c[nH]c4ccccc34)nnc2[C@@H](Cc2c[nH]c3ccccc23)NC(=O)C2CCNCC2)cc1` [compound 45, (R)—N-(1-(5-(2-(1H-indol-3-yl)ethyl)-4-(4-methoxybenzyl)-4H-1,2,4-triazol-3-yl)-2-(1H-indol-3-yl)ethyl)piperidine-4-carboxamide] is 0.0003 µM; for `CC(C)(N)C(=O)N[C@H](Cc1c[nH]c2ccccc12)c1nnc(CCc2c[nH]c3ccccc23)n1Cc1ccc(Br)cc1` [compound 92, (R)—N-(1-(5-(2-(1H-indol-3-yl)ethyl)-4-(4-bromobenzyl)-4H-1,2,4-triazol-3-yl)-2-(1H-indol-3-yl)ethyl)-2-amino-2-methylpropanamide] it is 0.2 µM.

As for `O=C(N[C@H](Cc1c[nH]c2ccccc12)c1nnc(CCc2ccccc2)n1Cc1cccs1)C1CCNCC1` [compound 94, (R)—N-(2-(1H-indol-3-yl)-1-(5-phenethyl-4-(thiophen-2-ylmethyl)-4H-1,2,4-triazol-3-yl)ethyl)piperidine-4-carboxamide], the half-inhibitory concentration (IC50) is 0.255 µM. The figure for `COc1ccc(Cn2c(CCc3ccccc3)nnc2[C@@H](Cc2c[nH]c3ccccc23)NC(=O)[C@@H]2C[C@@H](O)CN2)cc1` [compound 40, (2S,4R)—N—((R)-1-(4-(4-methoxybenzyl)-5-phenethyl-4H-1,2,4-triazol-3-yl)-2-(1H-indol-3-yl)ethyl)-4-hydroxypyrrolidine-2-carboxamide] is 0.249 µM; for `COc1ccc(Cn2c(CCc3ccccc3)nnc2[C@@H](Cc2c[nH]c3ccccc23)NC(=O)C2CCOCC2)cc1` [compound 184, N—((R)-1-(4-(4-methoxybenzyl)-5-phenethyl-4H-1,2,4-triazol-3-yl)-2-(1H-indol-3-yl)ethyl)-tetrahydro-2H-pyran-4-carboxamide] it is 0.0059 µM; for `CCc1ccc(Cn2c(CCc3ccccc3)nnc2[C@@H](Cc2c[nH]c3ccccc23)NC(=O)C(C)(C)N)cc1` [compound 43, (R)—N-(1-(4-(4-ethylbenzyl)-5-phenethyl-4H-1,2,4-triazol-3-yl)-2-(1H-indol-3-yl)ethyl)-2-amino-2-methylpropanamide] it is 0.044 µM.

`COc1ccc(Cn2c(CCc3c[nH]c4ccccc34)nnc2[C@@H](Cc2c[nH]c3ccccc23)NC(=O)C2CCCCN2)c(OC)c1` (stereo partly drawn) [compound 36, (R)—N-(1-(5-(2-(1H-indol-3-yl)ethyl)-4-(2,4-dimethoxybenzyl)-4H-1,2,4-triazol-3-yl)-2-(1H-indol-3-yl)ethyl)piperidine-2-carboxamide]: the IC50 came out at 0.053 µM. This IC50 and that of the compound before are within 1.5-fold of each other. The figure for `CC(C)(N)C(=O)N[C@H](Cc1c[nH]c2ccccc12)c1nnc(CCc2c[nH]c3ccccc23)n1Cc1ccc(Cl)c(Cl)c1` [compound 28, (R)—N-(1-(5-(2-(1H-indol-3-yl)ethyl)-4-(3,4-dichlorobenzyl)-4H-1,2,4-triazol-3-yl)-2-(1H-indol-3-yl)ethyl)-2-amino-2-methylpropanamide] is 0.079 µM. The compound `COc1cc(Cn2c(CCc3c[nH]c4ccccc34)nnc2[C@@H](Cc2c[nH]c3ccccc23)NC(=O)C(C)(C)N)cc(OC)c1` [compound 21, (R)—N-(1-(5-(2-(1H-indol-3-yl)ethyl)-4-(3,5-dimethoxybenzyl)-4H-1,2,4-triazol-3-yl)-2-(1H-indol-3-yl)ethyl)-2-amino-2-methylpropanamide] showed a concentration for half-maximal inhibition (IC50) of 0.203 µM. This IC50 is about 2.6-fold higher than that of the compound before. Compound `CC(C)(N)C(=O)N[C@H](Cc1c[nH]c2ccccc12)c1nnc(CCCc2c[nH]c3ccccc23)n1Cc1cccc2ccccc12` [compound 11, (R)—N-(1-(5-(3-(1H-indol-3-yl)propyl)-4-(naphthalen-1-ylmethyl)-4H-1,2,4-triazol-3-yl)-2-(1H-indol-3-yl)ethyl)-2-amino-2-methylpropanamide] displayed a concentration for half-maximal inhibition (IC50) of 0.137 µM.

Compound `COc1ccc(-n2c(CCc3ccccc3)nnc2[C@@H](Cc2c[nH]c3ccccc23)NC(=O)Cc2ccccn2)c(OC)c1` [compound 160, N—((R)-2-(1H-indol-3-yl)-1-(4-(2,4-dimethoxyphenyl)-5-phenethyl-4H-1,2,4-triazol-3-yl)ethyl)-2-(pyridin-2-yl)acetamide] displayed an IC50 of 0.121 µM.
